Results from ChEMBL document CHEMBL1133402, “Irreversible inhibition of type I dehydroquinase by substrates for type II dehydroquinase” (Bioorg Med Chem Lett, 2000).
The source made the active and inactive calls. No cut-off for these calls is given here.

What was measured:
[1] = molecular target: T1, 3-dehydroquinate dehydratase (Escherichia coli K-12) (UniProt P05194); test: Tested for percent inactivation against dehydroquinase after 24 hr at 10 mM
T1 sequence (whole entry): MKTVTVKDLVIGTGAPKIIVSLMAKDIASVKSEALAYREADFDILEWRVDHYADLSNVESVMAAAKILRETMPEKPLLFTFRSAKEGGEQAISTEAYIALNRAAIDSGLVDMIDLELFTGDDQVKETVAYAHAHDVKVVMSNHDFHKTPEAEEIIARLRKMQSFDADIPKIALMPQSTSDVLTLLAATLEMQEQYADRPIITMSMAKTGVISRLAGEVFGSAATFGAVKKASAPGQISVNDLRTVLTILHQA

[2] = molecular target: T2, 3-dehydroquinate dehydratase (Escherichia coli K-12, UniProt P05194); test: Tested for the binding affinity against dehydroquinase
T2 sequence (P05194 whole entry): T1 sequence (whole entry)

[3] = molecular target: T1, 3-dehydroquinate dehydratase (Escherichia coli K-12); test: kcat/Km value was determined
[4] = molecular target: T1, 3-dehydroquinate dehydratase (Escherichia coli K-12); test: Tested for inhibitory activity against type I dehydroquinase; active

Row | SMILES | Inactivation [1] | Ki [2] | k cat/Km [3] | Activity [4]
1 | O=C1C(O)C(O)CC(O)(C(=O)O)C1F (centres undefined) | 45% | 0.08 mM | 86000 M⁻¹ s⁻¹ | Active
2 | O=C(O)C1=C(Br)C(=O)[C@@H](O)[C@H](O)C1 |  |  |  | Active
3 | O=C1C(O)C(O)CC(O)(C(=O)O)C1Br (centres undefined) | 70% | 3.7 mM | 367000 M⁻¹ s⁻¹ | Active
